Measurements: patent US20190070128A1, “USE OF CANNABIDIVARIN IN THE TREATMENT OF AUTISM SPECTRUM DISORDER, ASSOCIATED DISORDERS AND SCHIZOPHRENIA” (GW Research Limited, priority 2016, published 2019)

Tested on: Ube3am-/p+ (AS) mice
Assay: audiogenic seizure susceptibility in Angelman syndrome mice
Format: in vivo, mouse
Settings: for mice experiencing seizures: baseline 100%
Description: Heterozygous mice with maternal deficiency of Ube3A (Ube3am−/p+) and wild type (Ube3am+/p+) were purchased from The Jackson Laboratory (Jackson code: B6.12957-Ube3a tm1Alb/J) and maintained in a C57BL/6 background.
For the audiogenic seizure tests CBDV was administered at 20, 200 and 400 mg/kg.
Seizure susceptibility: Audiogenic seizures were induced by vigorously scraping scissors across the metal grating of the cage lid which produces a 100 DB high frequency loud noise. This was done for 20 seconds. This test consists of 3 phases. In phase 1 all mice were tested for epilepsy. In phase 2 all mice were injected daily with either vehicle or a drug for 7 or 10 days. In phase 3 mice were tested for epilepsy (one hour after last injection).

Compound: C=C(C)[C@@H]1CCC(C)=C[C@H]1c1c(O)cc(CCC)cc1O [CBDV, Cannabidivarin]
- seizure susceptibility (AS mice, 20 mg/kg or 200 mg/kg, 7 or 10 days treatment): no effect
- number of mice with seizures (AS mice, 400 mg/kg): statistically significant decrease
- mice experiencing seizures (AS mice, 400 mg/kg, after 7 days treatment): 60%
- mice experiencing seizures (AS mice, 400 mg/kg, after 10 days treatment): 30%
- reduction of seizure susceptibility (Angelman mice, 400 mg/kg, after 10 days treatment): 70%
